Results reported in US5866597A, “Use of triazine compounds for the treatment of memory and learning disorders” (Glaxo Wellcome Inc., priority 1993, dated 1999).
Read-outs that look alike come from different tables or passages of the source.

Assays:
[1] = tested on: scopolamine-induced deficit in rats; experiment: Light-dark box memory test in rats, scopolamine-induced deficit, single dose pre-training (Tables 3 and 4); assay type: in vivo, Male Wistar rats; settings: for Mean latency Day 1 / Mean latency Day 2: ± SEM; for Effect on expected decrease in latency on retest: scopolamine 0.1 mg/kg
Procedure: (§1) Male Wistar rats obtained from Charles River were used. They were housed under controlled conditions (temperature 21±2 deg. C., humidity approx. 50%, 12 hour light/dark cycle, food and water ad lib) for one week before use. On the day before test the rats were permanently housed in groups of six. Food and water were supplied ad lib. On the test day, animals were weighed and then dosed either 30 minutes before test (midazolam), one hour before test (compound A) or immediately after test.
(§2) All drugs were dissolved or suspended in 0.25% (w/v) aqueous celacol, and administered orally (by gavage), i.p. or s.c. The dose volume was 5 ml/kg for all routes.
(§3) An identical apparatus to that described in Example 1 was used, except that the smaller box measured 370 mm×260 mm×190 mm.
(§4) This consisted of training as described for mice under section (d) of Example 1.
(§5) Test drugs or control fluids were given before or immediately after the training session.
(§6) This was as described under section (e) of Example 1.

[2] = tested on: scopolamine-induced deficit in mice; experiment: Modified light-dark box memory test in mice, scopolamine-induced deficit, drug given pre-training (Table 1); assay type: in vivo, Male albino CD-1 mice; settings: for Mean latency Day 1 / Mean latency Day 2: ± SEM
Procedure: (§7) Male albino CD-1 mice obtained from Charles River were used. They were housed under controlled conditions (temperature 21±2 deg. C., humidity approx. 50%, 12 hour light/dark cycle, food and water ad lib) for one week before use. On the day before test, the mice were housed in groups of six in polythene boxes in the laboratory and marked for identification. Food and water were supplied ad lib. On the test day, animals were weighed and then dosed either 30 minutes before test (piracetam, ondansetron) one hour before test (compound A) or immediately after test.
All drugs were dissolved or suspended in 0.25% (w/v) aqueous celacol, and administered orally (by gavage), i.p. or s.c. The dose volume was 10 ml/kg for all routes.
(§8) The apparatus consisted of two boxes with an opening 90 mm×60 mm at floor level between them. A plastic door was used to close the opening when required. The smaller box (290 mm×120 mm×120 mm high) was made of opaque plastics, open at the top to allow illumination by normal laboratory lighting. The larger box (305 mm square×280 mm high) was enclosed apart from the single opening.
(§9) This consisted of training, with retest 24 hours later. During training, animals were placed individually in the open box facing away from the end with the opening. After a period of exploration, they usually entered the dark box and the latency to entry in seconds was noted. The door to the dark box was closed, and after 30 seconds had elapsed, the animal was removed gently and returned to the holding box. Twenty-four hours later, an identical procedure was used, except that the session ended as soon as the animal had entered the dark box. The latency was again noted. During the interval, the animals were not handled, and were disturbed as little as possible. Each animal was used once only.
as §5
Group comparisons were made between latencies to enter the dark compartment on the first and second occasions. For both training and retest occasions, comparisons were made between vehicle and treatment groups. […] The difference between latencies on the two occasions is presented as % decrease on Day 2 compared with Day 1.
(§10) The mean latency to enter the dark box±standard error of the mean was calculated from a group of 12 animals. For a given treatment, figures in the columns labelled `Day 1` and `Day 2` show the mean latencies taken from the same group of animals. The difference between data obtained on the two days is illustrated by showing the % decrease, and the data compared using the Mann-Whitney U-test; NS indicates a p value>0.1.

scopolamine effect = settings: cited from earlier work; for Reversal of the scopolamine effect: screen for nootropic compounds
[3] = tested on: scopolamine-induced deficit in mice; experiment: Modified light-dark box memory test in mice, scopolamine-induced deficit, drug given immediately post-training (Table 2); assay type: in vivo, Male albino CD-1 mice; settings: for Mean latency Day 1 / Mean latency Day 2: ± SEM
Procedure: as §7
[…] The dose volume was 10 ml/kg for all routes.
as §8, §9, §5
Group comparisons were made between latencies to enter the dark compartment on the first and second occasions. For both training and retest occasions, comparisons were made between vehicle and treatment groups. The distribution of latencies was skewed on both learning and retest trials (data not shown), so the non-parametric Mann-Whitney U-test was used. The difference between latencies on the two occasions is presented as % decrease on Day 2 compared with Day 1.
as §10

[4] = isethionate salt, cited from earlier work
[5] = tested on: scopolamine-induced deficit in rats; experiment: Light-dark box memory test in rats, sub-acute dosing: pre-training, pre-training and pre-retest, or four pre-treatments and before training and retest (Table 5); assay type: in vivo, Male Wistar rats
Procedure: as §1
In the sub-acute dosing regimen (see `Procedure`) the rats, housed as above, received six doses of drug or vehicle by the oral route, each 24 hours apart.
as §2, §3, §4
The procedure was identical with that described above, except that seven groups of rats received compound A or control pre-treatment as 6 oral doses each 24 hours apart, as follows.
Training took place 1 hour after the fifth dose i.e. on day 5. […] The usual retest was performed 24 hours later (on day 6), one hour after the sixth oral treatment.
as §6
The mean latency to enter the dark box±standard error of the mean was calculated from a group of 24 animals (controls in first block) or 12 animals (all other treatments). For a given treatment, figures in the columns labelled `Day 5` and `Day 6` show the mean latencies taken from the same group of animals. The difference between data obtained on the two days is illustrated by showing the % decrease, and the data compared using the Mann-Whitney U-test.

[6] = tested on: scopolamine-induced dry mouth in rats; experiment: Salivation measurement in rats (Table 6); assay type: in vivo, Male Wistar rats; settings: scopolamine, vehicle-pretreated rats; p<0.01
Procedure: (§11) 15 minutes before observation. Under these conditions, which were identical to those used in the learning experiments described in Example 2, changes in salivation and pupil diameter were measured. Salivation was measured by placing a piece of folded filter paper in the rat's mouth and measuring the diameter of the blot in mm after 1 minute. Pupil diameter was measured using a magnifying glass and graticule under normal lighting conditions. For both measures, comparisons were made between control and drug-treated groups using a Student's T-test on independent samples.
(§12) Groups of 6 animals were used.

[7] = tested on: scopolamine-induced pupillary dilatation in rats; experiment: Pupil diameter measurement in rats (Table 6); assay type: in vivo, Male Wistar rats
Procedure: as §11, §12

[8] = saline s.c. + midazolam 0.5 mg/kg i.p.
[9] = scopolamine 0.1 mg/kg s.c. + midazolam 0.5 mg/kg i.p.
[10] = saline s.c. + piracetam 2000 mg/kg i.p.
[11] = scopolamine 1 mg/kg s.c. + piracetam 2000 mg/kg i.p.
[12] = saline s.c. + piracetam 2000 mg/kg i.p. post-training
[13] = scopolamine 1 mg/kg s.c. + piracetam 2000 mg/kg i.p. post-training
[14] = scopolamine 1 mg/kg s.c. + ondansetron 0.01 ug/kg i.p.
[15] = scopolamine 1 mg/kg s.c. + ondansetron 1.0 ug/kg i.p.
[16] = scopolamine 1 mg/kg s.c. + ondansetron 100 ug/kg i.p.
[17] = scopolamine 0.1 mg/kg s.c. + celacol days 1-6, ± SEM
[18] = scopolamine 1 mg/kg s.c. + celacol
[19] = scopolamine 1 mg/kg s.c. + saline (piracetam experiment)
[20] = scopolamine 1 mg/kg s.c. + saline
[21] = scopolamine 0.1 mg/kg s.c. + celacol (Table 3)
[22] = scopolamine 0.1 mg/kg s.c. + saline (Table 4)

## Cc1ncc2n1-c1ccc(Cl)cc1C(c1ccccc1F)=NC2 [Midazolam]
[1]; midazolam 0.5 mg/kg i.p.
  Reversal of scopolamine-induced deficit: did not reverse the scopolamine-induced deficit
[1]; saline s.c. + midazolam 0.5 mg/kg i.p., p (0.09)
  Difference between days, % Decrease: 29%
[1]; [8]
  Mean latency Day 1: 39.9 ± 4.9 s
  Mean latency Day 2: 28.2 ± 2.7 s
[1]; scopolamine 0.1 mg/kg s.c. + midazolam 0.5 mg/kg i.p., p NS
  Difference between days, % Decrease: 9%
[1]; [9]
  Mean latency Day 1: 37.0 ± 4.0 s
  Mean latency Day 2: 33.6 ± 3.4 s

## NC(=O)CN1CCCC1=O [Piracetam]
[2]; piracetam 2000 mg/kg i.p. + scopolamine, pre-training, p<0.05
  Day 2 latency versus scopolamine-treated control animals: significantly different
[2]; saline s.c. + piracetam 2000 mg/kg i.p., p <0.01
  Difference between days, % Decrease: 44%
[2]; [10]
  Mean latency Day 1: 21.4 ± 4.7 s
  Mean latency Day 2: 12.1 ± 1.2 s
[2]; scopolamine 1 mg/kg s.c. + piracetam 2000 mg/kg i.p., p NS*
  Difference between days, % Decrease: 27%
[2]; [11]
  Mean latency Day 1: 19.1 ± 2.4 s
  Mean latency Day 2: 13.9 ± 1.8 s
Scopolamine effect
  Reversal of the scopolamine effect: positive results
[3]; saline s.c. + piracetam 2000 mg/kg i.p. post-training, p <0.05
  Difference between days, % Decrease: 28%
[3]; [12]
  Mean latency Day 1: 18.8 ± 2.0 s
  Mean latency Day 2: 13.5 ± 1.7 s
[3]; scopolamine 1 mg/kg s.c. + piracetam 2000 mg/kg i.p. post-training, p NS*
  Difference between days, % Decrease: 6%
[3]; [13]
  Mean latency Day 1: 19.2 ± 1.8 s
  Mean latency Day 2: 18.0 ± 1.8 s

## Nc1nnc(-c2cccc(Cl)c2Cl)c(N)n1 [3,5-diamino-6-(2,3-dichlorophenyl)-1,2,4-triazine isethionate]
[4]
  Solubility: good solubility
[4]; listed as The salt with isethionic acid
  Solubility: particularly good solubility

## Cc1nccn1CC1CCc2c(c3ccccc3n2C)C1=O (stereo not shown) [Ondansetron, 1,2,3,9-tetrahydro-9-methyl-3-[(2-methyl-1H-imidazol-1-yl)methyl]-4H-carbazol-4-one]
[2]; scopolamine 1 mg/kg s.c. + ondansetron 0.01 ug/kg i.p., p NS
  Difference between days, % Decrease: -28%
[2]; [14]
  Mean latency Day 1: 15.6 ± 1.8 s
  Mean latency Day 2: 20.0 ± 1.9 s
[2]; scopolamine 1 mg/kg s.c. + ondansetron 1.0 ug/kg i.p., p NS
  Difference between days, % Decrease: -5%
[2]; [15]
  Mean latency Day 1: 14.3 ± 1.4 s
  Mean latency Day 2: 14.9 ± 1.2 s
[2]; scopolamine 1 mg/kg s.c. + ondansetron 100 ug/kg i.p., p <0.05
  Difference between days, % Decrease: 28%
[2]; [16]
  Mean latency Day 1: 16.3 ± 1.9 s
  Mean latency Day 2: 11.8 ± 1.5 s
Scopolamine effect
  Reversal of the scopolamine effect: positive results

## CN1[C@@H]2C[C@@H](OC(=O)[C@H](CO)c3ccccc3)C[C@H]1[C@@H]1O[C@@H]12 [Scopolamine]
[5]; scopolamine 0.1 mg/kg s.c. + celacol days 1-6, p NS
  Diff. between days, %: -3%
[5]; [17]
  Mean latency Day 5: 33.5 ± 2.2 s
  Mean latency Day 6: 34.4 ± 2.5 s
[5]; scopolamine 0.1 mg/kg, vehicle-treated rats
  Effect on expected decrease in mean latency: reversed by scopolamine
[6]
  Effect on salivation: reduced salivation
[2]; scopolamine 1 mg/kg s.c. + celacol, p NS
  Difference between days, % Decrease: -10%
[2]; [18]
  Mean latency Day 1: 18.8 ± 1.8 s
  Mean latency Day 2: 20.7 ± 2.3 s
[2]; scopolamine 1 mg/kg s.c. + saline (ondansetron experiment), p NS
  Difference between days, % Decrease: -2%
[2]; scopolamine 1 mg/kg s.c. + saline (ondansetron experiment)
  Mean latency Day 1: 16.5 ± 1.3 s
[2]; scopolamine 1 mg/kg s.c. + saline (piracetam experiment), p NS
  Difference between days, % Decrease: -27%
[2]; [19]
  Mean latency Day 1: 18.9 ± 1.4 s
  Mean latency Day 2: 24.0 ± 2.5 s
[2]; scopolamine 1 mg/kg, vehicle-treated mice
  Effect on expected decrease in latency on retest: abolished this effect
Scopolamine effect; given before or immediately after a learning trial
  Effect on memory: can abolish the memory
[3]; scopolamine 1 mg/kg s.c. + saline, p (0.07, up)
  Difference between days, % Decrease: -36%
[3]; [20]
  Mean latency Day 1: 19.5 ± 2.3 s
  Mean latency Day 2: 26.5 ± 2.7 s
[7]; celacol p.o. + scopolamine 0.1 mg/kg s.c., ± SEM
  Mean pupil diameter: 22.8 ± 1.65 mm × 10
[7]; scopolamine, vehicle-pretreated rats, p<0.01
  Effect on pupil diameter: significantly increased pupil diameter
[1]; scopolamine 0.1 mg/kg s.c. + celacol (Table 3), p NS
  Difference between days, % Decrease: 0%
[1]; [21]
  Mean latency Day 1: 44.4 ± 4.3 s
  Mean latency Day 2: 44.5 ± 3.7 s
[1]; scopolamine 0.1 mg/kg s.c. + saline (Table 4), p NS
  Difference between days, % Decrease: -16%
[1]; [22]
  Mean latency Day 1: 34.4 ± 5.2 s
  Mean latency Day 2: 39.8 ± 4.5 s
[1]; vehicle-treated rats (Table 3)
  Effect on expected decrease in latency on retest: reversed this effect
[1]; vehicle-treated rats (Table 4)
  Effect on expected decrease in latency on retest: prevented this effect
